Test results reported in PMC12658643, “Effects of Ligand N and O Donor Content on the Structure, Aqueous Stability, and SOD Activity of a Series of Mn^2+ Complexes with Pyridine-Containing Tripodal Ligands” (ACS Omega, 2025).
Where two headings read alike, the source gives them in different places.

Experiments:
[1] = tested on: superoxide ion; test: McCord-Fridovich assay (SOD activity, inhibition of ferricytochrome c reduction by superoxide ion); type: biochemical
Source text: The McCord–Fridovich assay was used to measure the SOD activity of the Mn^2+ complexes of our ligands formed in situ. This assay utilizes the reaction of xanthine oxidase with xanthine to produce superoxide ion which, in turn, reduces ferricytochrome C. The reduction of ferricytochrome C is monitored at 550 nm in the absence and presence of SOD mimics to determine the concentration at which the complexes inhibit ferricytochrome C reduction by 50%, their IC50 value. […] Stock solutions of cytochrome C, xanthine, xanthine oxidase, catalase, and MnCl2 were also prepared with this buffer. The temperature of the reactions was held constant at 25 °C using a Peltier attachment to the spectrophotometer. For a typical reaction, a solution was prepared in a cuvette containing 50 μM cytochrome c, 50 μM xanthine, 30 μg/mL catalase, and enough buffer to provide a total of 3 mL of solution. Approximately 100 μg/mL xanthine oxidase was added to initiate the reaction. This quantity was adjusted to give an initial velocity of 0.025–0.030 ΔAbs550nm/min. The reaction was monitored at 550 nm. After 2.5 min, a quantity of MnCl2 was added and the absorbance was monitored for another 2.5 min. Reactions were run in triplicate for each different concentration of Mn^2+ examined, and percent inhibition was calculated as %I=(V0−Vf/V0)×100% , where V 0 and V f are the initial and final velocities respectively. Plots of %I vs [Mn^2+] were used to determine the IC50 for each complex. To verify the fidelity of the McCord-Fridovich assay, the production of urate by the xanthine/xanthine oxidase reaction at 290 nm in the absence and presence of each complex, and no inhibition at a concentration higher than the IC50 was observed.
The SOD-like activity of Mn^2+ complexes of the tripodal ligands was evaluated using the McCord-Fridovich assay. This is an indirect assay that examines the reduction of ferricytochrome c by superoxide ion in the absence and presence of SOD or potential SOD mimetic compounds. The reaction of xanthine with xanthine oxidase provides a source of superoxide ion for the assay, and the reduction of ferricytochrome c is monitored at 550 nm. Given their low to moderate aqueous stability, it was not possible to use preformed complexes for these assays since we would not expect them to remain intact at the micromolar concentrations employed. Instead, Mn^2+ complexes were formed in situ, in buffered, aqueous solution (pH 7.5), by combining the ligands with manganese(II) chloride. In each case, an excess of ligand was included to produce Mn^2+ complexation as close to 100% as possible, while avoiding solubility issues. Percent complexation of the complexes under these conditions has been estimated from the 1:1 [MnL]^2+ stability constants (βMnL) in Table , based on the ligand complex concentration employed and an Mn^2+ concentration close to the IC50 values of the complexes (0.1 μM). We note that, given the high concentrations of ligand present in our experiments, higher speciation complexes (e.g., [MnL2]^2+) may also be present in our reaction solutions, resulting from adventitious mono-or bidentate-coordination of an additional ligand. These types of species have been observed previously for Mn^2+ complexes with a related ligand (HPClNOL), where HPClNOL is the tripodal ligand {1-[bis(pyridine-2-ylmethyl)-amino]-3-chloropropan-2-ol}, yet in a 50:50, MeOH/H2O solution where overall complex stability is expected to be much higher. Since we cannot rule out higher speciation under the conditions of these in situ experiments, our use of the term Mn^2+ complexes is meant to indicate all [MnL]^2+ or [MnL x ]^2+ species present in reaction solutions here.
Percent inhibition plots for MnCl2 in both HEPES and phosphate buffer are provided in Supporting Information (Figures S35 and S36). […]

[2] = Potentiometric titration of the acidified ligands (protonation constants); conditions: I = 0.10 M KCl; for Log βLH1 (protonation constant of the ligand) / Log βLH2 (protonation constant of the ligand): t = 25 °C; for Log Ka1 / Log Ka2: Table S35, t = 25°C
[3] = for Log βMnL (stability constant of the Mn^2+ complex) / pK aMnL(H2O) (acid dissociation constant of an associated aqua ligand) / Log Ka MnL(H2O) / Log bMnL: I = 0.10 M KCl; for Log βMnL (stability constant of the Mn^2+ complex) / pK aMnL(H2O) (acid dissociation constant of an associated aqua ligand): t = 25 °C; for conditional complex formation: McCord-Fridovich assay conditions, HEPES buffer pH 7.5, excess ligand, Mn^2+ 0.1 μM, estimated from βMnL; for Log Ka MnL(H2O) / Log bMnL: Table S35, t = 25°C; for % Complex (McCord-Fridovich assays): Table S37, ligand 0.001 M (TMPA, DPEA, DPMEA) or 0.01 M (PDEA, PDMEA), MnCl2 0.1 µM, estimated from stability studies; for % Complex (complex formation under cyclic voltammetry conditions): ligand 0.001 M (TMPA) or 0.01 M, MnCl2 0.001 M, estimated from complex stability studies
[4] = Cyclic voltammetry of Mn^2+ complexes formed in situ, Mn^III/Mn^II couple; type: physicochemical
Protocol: Cyclic voltammograms were recorded in 50 mM collidine buffer, pH 7.5, using an eDAQ 466 Integrated Potentiostat System with EChem software. Mn^2+ complexes were formed in situ in the presence of excess ligand to ensure a high percentage of complex formation (see Table S35 in Supporting Information) according to our stability studies vide infra. A glassy carbon working electrode, Ag/AgCl reference electrode, and Pt/Ti auxiliary electrode were employed. Prior to recording CVs, solutions were bubbled with nitrogen gas for 15 min to eliminate oxygen. CVs were then recorded at a scan rate of 100 mV/s.
Cyclic voltammograms of the Mn^2+ complexes of TMPA, DPEA, DPMEA, PDEA, and PDMEA, prepared in situ in buffered aqueous solution (pH 7.5), were recorded vs Ag/AgCl to determine the reduction potential (E 1/2) for the Mn^III/Mn^II couple. A cyclic voltammogram of MnCl2 in the buffered solution was also recorded for the purpose of comparison. Collidine buffer was employed for analysis since it tends to permit visualization of electrochemical waves for Mn^2+ complexes with pyridine-containing ligands, where other solvents/buffers can lead to ill-defined or absent features for these species. Ligand and MnCl2 concentrations were chosen to ensure near complete (N4 and N3O), or substantial (N2O2) complex formation according to our stability studies. For [MnTMPA]^2+, an equimolar amount of TMPA and MnCl2 were used (0.001 M), and for all other complexes, ligand concentration (0.01 M) was 10-fold the concentration of MnCl2 (0.001 M). In each case, […] waves were recorded where the difference in oxidation and reduction peak positions (ΔE p) is greater than 59 mV. Redox potential values (E 1/2), determined from the average of the positions of the oxidation and reduction peaks, are given in Table along with ΔE p values. The distinct positions of these peaks, relative to those of MnCl2, further corroborate [MnL]^2+ aqueous complex formation of the N4, N3O, and N2O2 ligands employed. Voltammograms can be found in Supporting Information (Figures S29–S34 ).

[5] = tested on: superoxide ion; conditions: reported previously; reference not given; read-out: IC50 (SOD activity); cited from earlier work
[6] = given for comparison to the complexes; reference not given; cited from earlier work
[7] = HEPES buffer, pH 7.5, measured IC50 corrected for expected percent complex formation, read-out: apparent IC50
[8] = Mn^2+ complexes formed in situ with excess ligand, 50 mM HEPES buffer, pH 7.5, 25 °C, concentration as Mn^2+, read-out: measured IC50
[9] = collidine buffer, pH 7.5, scan rate 100 mV/s, vs Ag/AgCl
[10] = HEPES buffer, pH 7.5, estimated using kcat=kcytc[cytc]/IC50, k cytc = 2.6 × 10^5 M^–1 s^–1, [cyt c] = 5 × 10^–5 M

Molecule | IC50 [1, 7] [nM] | IC50 [1, 8] [nM] | Log βLH1 (protonation constant of the ligand) [2] | Log βLH2 (protonation constant of the ligand) [2] | Log Ka1 [2] | Log Ka2 [2] | Log βMnL (stability constant of the Mn^2+ complex) [3] | pK aMnL(H2O) (acid dissociation constant of an associated aqua ligand) [3] | conditional complex formation [3] [%] | Log Ka MnL(H2O) [3] | Log bMnL [3] | % Complex (McCord-Fridovich assays) [3] [%] | % Complex (complex formation under cyclic voltammetry conditions) [3] [%] | also measured
COCCN(Cc1ccccn1)Cc1ccccn1 [DPMEA, 2-Methoxy-N,N-bis(pyridin-2-ylmethyl)ethan-1-amine] | 480 | 600 | 6.19(1) | 9.81(1) | 6.19(1) | 9.81(1) | 3.71(2) | 6.07(2) | 80 | -6.07(2) | 3.71(2) | 80 | 97 | –
OCCN(Cc1ccccn1)Cc1ccccn1 [DPEA, N,N-Bis(2-pyridylmethyl)ethanolamine] | 140 | 150 | 6.10(1) | 9.40(3) | 6.10(1) | 9.40(3) | 4.12(1) | 5.63(1) | 92 | -5.63(1) | 4.12(1) | 92 | 98 | –
[Cl][Mn][Cl] [MnCl2, manganese(II) chloride, reference compound] | – | 13000 | – | – | – | – | – | – | – | – | – | – | – | ΔE p ([4]; collidine buffer, pH 7.5, scan rate 100 mV/s): 0.285; E oxid [4, 9]: 0.415 V; E red [4, 9]: 0.130 V; E 1/2 vs Ag/AgCl ([4]; collidine buffer, pH 7.5, average of oxidation and reduction peak positions): 0.273 V; E 1/2 vs SHE ([4]; converted using E 1/2 SHE = E 1/2 Ag/AgCl + 0.197 V): 0.470 V; k cat ([1]; 50 mM phosphate buffer, pH 7.5, estimated from IC50): 2.8 × 10^7 M^–1 s^–1; IC50 ([1]; 50 mM phosphate buffer, pH 7.5, read-out: measured IC50): 470 nM; SOD activity in the range of the IC50 values of the complexes ([1]; HEPES buffer): do not observe measurable SOD activity; k cat [1, 10]: 1.0 × 10^6 M^–1 s^–1
c1ccc(CN(Cc2ccccn2)Cc2ccccn2)nc1 [TMPA, Tris(pyridin-2-ylmethyl)amine] | 300 | 300 | 6.01(1) | 10.08(1) | 6.01(1) | 10.08(1) | 5.24(2) | 4.98(3) | 99 | -4.98(3) | 5.24(2) | 99 | 93 | –
COCCN(CCOC)Cc1ccccn1 [PDMEA, 2-Methoxy-N-(2-methoxyethyl)-N-(pyridin-2-ylmethyl)ethan-1-amine] | 790 | 1300 | 6.90(2) | – | 6.90(2) | – | 2.32(2) | 6.6(1) | 61 | -6.6(1) | 2.32(2) | 61 | 61 | k cat [1, 10]: 1.6 × 10^7 M^–1 s^–1
OCCN(CCO)Cc1ccccn1 [PDEA, 2,2′-((Pyridin-2-ylmethyl)azanediyl)bis(ethan-1-ol)] | 70 | 110 | 6.78(1) | – | 6.78(1) | – | – | 7.00(2) | 66 | -7.00(2) | – | 66 | 66 | –
OC(CCl)CN(Cc1ccccn1)Cc1ccccn1.[Cl][Mn][Cl] (stereo not shown) [Mn(HPClNOL)Cl2] | – | – | – | – | – | – | – | – | – | – | – | – | – | IC50 [5]: 350 nM
Human MnSOD: human manganese superoxide dismutase enzyme (protein, UniProt P04179 25-222, looked up) Superoxide dismutase [Mn], …: KHSLPDLPYDYGALEPHINAQIMQLHHSKHHAAYVNNLNVTEEKYQEALAKGDVTAQIALQPALKFNGGGHINHSIFWTNLSPNGGGEPKGELLEAIKRDFGSFDKFKEKLTAASVGVQGSGWGWLGFNKERGHLQIAACPNQDPLQGTTGLIPLLGIDVWEHAYYLQYKNVRPDYLKAIWNVINWENVTERYMACKK | – | – | – | – | – | – | – | – | – | – | – | – | – | E 1/2 vs SHE of MnSOD enzymes [6]: 0.29 V
Escherichia coli MnSOD: manganese superoxide dismutase enzyme of Escherichia coli (protein, UniProt P00448 2-206, looked up) Superoxide dismutase [Mn]: SYTLPSLPYAYDALEPHFDKQTMEIHHTKHHQTYVNNANAALESLPEFANLPVEELITKLDQLPADKKTVLRNNAGGHANHSLFWKGLKKGTTLQGDLKAAIERDFGSVDNFKAEFEKAAASRFGSGWAWLVLKGDKLAVVSTANQDSPLMGEAISGASGFPIMGLDVWEHAYYLKFQNRRPDYIKEFWNVVNWDEAAARFAAKK | – | – | – | – | – | – | – | – | – | – | – | – | – | E 1/2 vs SHE of MnSOD enzymes [6]: 0.40 V
